Laboratory results reported in patent US6358885B1, “Substituted phenylheterocyclic herbicides” (Mississippi State University, priority 1992, dated 2002).

Legend:
wheat [1] = experiment: Test C preemergence/postemergence greenhouse plant response rating 0 to 100; type: in vivo, Triticum aestivum; conditions: PREEMERGENCE
Method in brief: (§1)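 Compounds in non-phytotoxic solvent went onto sandy loam before emergence (seeded one day earlier) or onto plants at the one-to-four leaf stage. Duck salad was treated via flood water (~2.5 cm, maintained) over silt loam.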

wheat [2] = experiment: Test B preemergence/postemergence greenhouse plant response rating 0 to 10; type: in vivo, Triticum aestivum; conditions: 0 to 10 scale
Method in brief: (§2)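 Test chemicals were sprayed onto freshly planted seed and, concurrently, onto young plants between the one and four leaf stage. After a twelve- to sixteen-day greenhouse period, each species was visually compared with untreated controls.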

bedstraw = experiment: Test C preemergence/postemergence greenhouse plant response rating 0 to 100; type: in vivo, Galium aparine; conditions: PREEMERGENCE; for Plant response rating, Bedstraw: 0 to 100 scale
Method in brief: as §1

barnyardgrass = experiment: Test B preemergence/postemergence greenhouse plant response rating 0 to 10; type: in vivo, Echinochloa crus-galli; conditions: 0 to 10 scale
Method in brief: as §2

giant foxtail = experiment: Test C preemergence/postemergence greenhouse plant response rating 0 to 100; type: in vivo, Setaria faberii; conditions: PREEMERGENCE; for Plant response rating, Giant foxtail: 0 to 100 scale
Method in brief: as §1

blackgrass = experiment: as above; type: in vivo, Alopecurus myosuroides; conditions: PREEMERGENCE; for Plant response rating, Blackgrass: 0 to 100 scale
Method in brief: as §1

morningglory = experiment: Test B preemergence/postemergence greenhouse plant response rating 0 to 10; type: in vivo, Ipomoea hederacea; conditions: 0 to 10 scale
Method in brief: as §2

cotton = experiment: as above; type: in vivo, Gossypium hirsutum; conditions: 0 to 10 scale
Method in brief: as §2

wild oat = experiment: Test C preemergence/postemergence greenhouse plant response rating 0 to 100; type: in vivo, Avena fatua; conditions: PREEMERGENCE
Method in brief: as §1

crabgrass = experiment: as above; type: in vivo, Digitaria sanguinalis; conditions: PREEMERGENCE; for Plant response rating, Crabgrass: 0 to 100 scale
Method in brief: as §1

velvetleaf = experiment: Test B preemergence/postemergence greenhouse plant response rating 0 to 10; type: in vivo, Abutilon theophrasti; conditions: 0 to 10 scale
Method in brief: as §2

rape = experiment: Test C preemergence/postemergence greenhouse plant response rating 0 to 100; type: in vivo, Brassica napus; conditions: PREEMERGENCE; for Plant response rating, Rape: 0 to 100 scale
Method in brief: as §1

speedwell = experiment: as above; type: in vivo, Veronica persica; conditions: PREEMERGENCE
Method in brief: as §1

CCCN1C(=O)COc2cc(F)c(-c3nn4c(c3Br)CCCC4)cc21 [Compound 63]
Plant response rating, Wheat (wheat [1]; 250 g/ha, 0 to 100 scale): 50 | Plant response rating (0 to 100), Wheat (wheat [1]; Rate 4 g/ha): 0 | Plant response rating (0 to 100), Wheat (wheat [1]; Rate 16 g/ha): 0 | Plant response rating, Wheat (wheat [2]; POSTEMERGENCE, Rate 10 g/ha): 4 | Plant response rating, Wheat (wheat [2]; POSTEMERGENCE, Rate 50 g/ha): 5 | Plant response rating, Wheat (wheat [2]; PREEMERGENCE, Rate 50 g/ha): 2 | Plant response rating, Bedstraw (bedstraw; 62 g/ha): 100 | Plant response rating, Bedstraw (bedstraw; 250 g/ha): 100 | Plant response rating (0 to 100), Bedstraw (bedstraw; Rate 4 g/ha): 0 | Plant response rating (0 to 100), Bedstraw (bedstraw; Rate 16 g/ha): 10 | Plant response rating, Barnyardgrass (barnyardgrass; POSTEMERGENCE, Rate 10 g/ha): 3 | Plant response rating, Barnyardgrass (barnyardgrass; POSTEMERGENCE, Rate 50 g/ha): 5 | Plant response rating, Barnyardgrass (barnyardgrass; PREEMERGENCE, Rate 10 g/ha): 0 | Plant response rating, Barnyardgrass (barnyardgrass; PREEMERGENCE, Rate 50 g/ha): 0 | Plant response rating, Giant foxtail (giant foxtail; 62 g/ha): 20 | Plant response rating, Giant foxtail (giant foxtail; 250 g/ha): 75 | Plant response rating (0 to 100), Giant foxtail (giant foxtail; Rate 4 g/ha): 0 | Plant response rating (0 to 100), Giant foxtail (giant foxtail; Rate 16 g/ha): 0 | Plant response rating, Blackgrass (blackgrass; 62 g/ha): 50 | Plant response rating, Blackgrass (blackgrass; 250 g/ha): 90 | Plant response rating (0 to 100), Blackgrass (blackgrass; Rate 4 g/ha): 10 | Plant response rating (0 to 100), Blackgrass (blackgrass; Rate 16 g/ha): 30 | Plant response rating, Morningglory (morningglory; POSTEMERGENCE, Rate 10 g/ha): 8 | Plant response rating, Morningglory (morningglory; POSTEMERGENCE, Rate 50 g/ha): 10 | Plant response rating, Morningglory (morningglory; PREEMERGENCE, Rate 50 g/ha): 0 | Plant response rating, Cotton (cotton; POSTEMERGENCE, Rate 10 g/ha): 9 | Plant response rating, Cotton (cotton; POSTEMERGENCE, Rate 50 g/ha): 10 | Plant response rating, Cotton (cotton; PREEMERGENCE, Rate 10 g/ha): 0 | Plant response rating, Cotton (cotton; PREEMERGENCE, Rate 50 g/ha): 2 | Plant response rating, Wild oat (wild oat; 250 g/ha, 0 to 100 scale): 85 | Plant response rating (0 to 100), Wild oat (wild oat; Rate 4 g/ha): 0 | Plant response rating (0 to 100), Wild oat (wild oat; Rate 16 g/ha): 0 | Plant response rating, Crabgrass (crabgrass; 62 g/ha): 0 | Plant response rating, Crabgrass (crabgrass; 250 g/ha): 70 | Plant response rating (0 to 100), Crabgrass (crabgrass; Rate 4 g/ha): 0 | Plant response rating (0 to 100), Crabgrass (crabgrass; Rate 16 g/ha): 0 | Plant response rating, Velvetleaf (velvetleaf; POSTEMERGENCE, Rate 10 g/ha): 8 | Plant response rating, Velvetleaf (velvetleaf; POSTEMERGENCE, Rate 50 g/ha): 10 | Plant response rating, Velvetleaf (velvetleaf; PREEMERGENCE, Rate 50 g/ha): 7 | Plant response rating, Rape (rape; 62 g/ha): 85 | Plant response rating, Rape (rape; 250 g/ha): 100 | Plant response rating (0 to 100), Rape (rape; Rate 4 g/ha): 0 | Plant response rating (0 to 100), Rape (rape; Rate 16 g/ha): 20 | Plant response rating Speedwell (speedwell; 250 g/ha, 0 to 100 scale): 100 | Plant response rating (0 to 100), Speedwell (speedwell; Rate 4 g/ha): 0 | Plant response rating (0 to 100), Speedwell (speedwell; Rate 16 g/ha): 90
